The text below walks through data of US20100267636A1, “USE OF CYTOCHROME P450-METABOLIZED DRUGS AND GRF MOLECULES IN COMBINATION THERAPY” (THERATECHNOLOGIES INC., priority 2009, published 2010).

One series is described as follows: clinical. The format is in vivo. To be noted: human; for AUC(0-inf) / AUC(0-t) / Cmax / Tmax / half-life: both sexes, 80 mg. As to the method:
[…] […] N=58 healthy adult (male and female) subjects were enrolled. Dosing occurred in two groups. […] PK/statistics: PK parameters were calculated using standard noncompartmental approaches. […] The final ANOVA models included group, sequence, treatment, and period nested within group as fixed effects and subject nested within group-by-sequence as a random effect. The treatment-by-group term was excluded from the models for the groups combined, to be conservative.

Series [1] can be described thus: Plasma PK of TH9507 in simvastatin studies (ELISA). The format is in vivo, human. Here is the method: 2 ml of TH9507 (1 mg/ml injectable solution) was administered by subcutaneous injection under fasting conditions once daily for 7 consecutive days (daily dose of 2 mg TH9507).
N=58 healthy adult (male and female) subjects were enrolled. Dosing occurred in two groups.
PK/statistics: PK parameters were calculated using standard noncompartmental approaches.

The next series concerns CYP3A. The series is described as follows: Impact of TH9507 on CYP3A activity (simvastatin drug interaction studies). To be noted: 2 mg TH9507 days 1 to 7, 80 mg simvastatin as CYP3A substrate on Day 6. The format is in vivo, human. The text has this: The final ANOVA models included group, sequence, treatment, and period nested within group as fixed effects and subject nested within group-by-sequence as a random effect. The treatment-by-group term was excluded from the models for the groups combined, to be conservative.

Where [2] appears, read: both sexes, human, plasma, sc, 2 mg.

Molecules are shown by their SMILES.

As a reminder, the AUC(0-inf) is total exposure, with the tail of the curve extrapolated. The term AUC(0-t) denotes the area under the concentration-time curve up to a stated or last time point. A low value points to low exposure. A word on the Cmax: it is the highest concentration seen after dosing. As a reminder, the Tmax is the time at which the peak concentration occurs.

Regarding `CCC(C)(C)C(=O)O[C@H]1C[C@@H](C)C=C2C=C[C@H](C)[C@H](CC[C@@H](O)C[C@@H](O)CC(=O)O)[C@H]21` [Simvastatin Acid, simvastatin acid], in “clinical” (in vivo, po), the total exposure AUC(0-inf) was 46.8 ng·h/mL, the AUC(0-t) is 43.4 ng·h/mL, the Cmax was determined as 4.33 ng/mL and the Tmax was 4.5 h. This compound also gave a half-life in “clinical” (in vivo, po) of 8.07 h. Also, in “clinical” (in vivo, sc), the AUC(0-inf) worked out at 39.9 ng·h/mL, the AUC(0-t) turned out to be 37.5 ng·h/mL, the peak level (Cmax) was 4.28 ng/mL and the time of peak concentration (Tmax) worked out at 4.5 h. In “clinical” (in vivo, sc), this compound showed a half-life of 6.91 h. In the series “clinical” (both, in vivo), the “AUC0-inf, A/B Ratio (%)” value was found to be 85.2%; the “AUC0-t, A/B Ratio (%)” value worked out at 86.3%; the “Cmax, A/B Ratio (%)” value worked out at 99.0%.
In the case of `CCC(C)(C)C(=O)O[C@H]1C[C@@H](C)C=C2C=C[C@H](C)[C@H](CC[C@@H]3C[C@@H](O)CC(=O)O3)[C@H]21` [Simvastatin, (1S,3R,7S,8S,8aR)-8-{2-[(2R,4R)-4-hydroxy-6-oxooxan-2-yl]ethyl}-3,7-dimethyl-1,2,3,7,8,8a-hexahydronaphthalen-1-yl 2,2-dimethylbutanoate, reference compound], the half-life is 8.56 h in “clinical” (plasma, po, read-out: T1/2, Treatment B (converted)) and 7.62 h in “clinical” (plasma, sc, read-out: T1/2, Treatment A (converted)).
Regarding `CC/C=C/CC(=O)N[C@@H](Cc1ccc(O)cc1)C(=O)N[C@@H](C)C(=O)N[C@@H](CC(=O)O)C(=O)N[C@@H](C)C(=O)N[C@H](C(=O)N[C@@H](Cc1ccccc1)C(=O)N[C@H](C(=O)N[C@@H](CC(N)=O)C(=O)N[C@@H](CO)C(=O)N[C@@H](Cc1ccc(O)cc1)C(=O)N[C@@H](CCCNC(=N)N)C(=O)N[C@@H](CCCCN)C(=O)N[C@H](C(=O)N[C@@H](CC(C)C)C(=O)NCC(=O)N[C@@H](CCC(N)=O)C(=O)N[C@@H](CC(C)C)C(=O)N[C@@H](CO)C(=O)N[C@@H](C)C(=O)N[C@@H](CCCNC(=N)N)C(=O)N[C@@H](CCCCN)C(=O)N[C@@H](CC(C)C)C(=O)N[C@@H](CC(C)C)C(=O)N[C@@H](CCC(N)=O)C(=O)N[C@@H](CC(=O)O)C(=O)N[C@H](C(=O)N[C@@H](CCSC)C(=O)N[C@@H](CO)C(=O)N[C@@H](CCCNC(=N)N)C(=O)N[C@@H](CCC(N)=O)C(=O)N[C@@H](CCC(N)=O)C(=O)NCC(=O)N[C@@H](CCC(=O)O)C(=O)N[C@@H](CO)C(=O)N[C@@H](CC(N)=O)C(=O)N[C@@H](CCC(N)=O)C(=O)N[C@@H](CCC(=O)O)C(=O)N[C@@H](CCCNC(=N)N)C(=O)NCC(=O)N[C@@H](C)C(=O)N[C@@H](CCCNC(=N)N)C(=O)N[C@@H](C)C(=O)N[C@@H](CCCNC(=N)N)C(=O)N[C@@H](CC(C)C)C(N)=O)[C@@H](C)CC)C(C)C)[C@@H](C)O)[C@@H](C)CC` [TH9507, (hexenoyl trans-3)hGRF(1-44)NH2], the Tmax in series [1] (TH9507 2 mg s.c. once daily, day 6 samples, simvastatin studies, median) is 9 min. In series [1] (setting [2]), this compound showed an area under the curve AUC(0-inf) of 1.05 ng·h/mL, an area under the curve AUC(0-t) of 0.888 ng·h/mL, a Cmax of 3.36 ng/mL and a half-life of 8.4 min. The “impact on CYP3A activity” value in the series with CYP3A is reported as “not significant”.
